Reference: EP4678629A1, “IONIZABLE LIPID MOLECULE, PREPARATION METHOD THEREFOR AND USE THEREOF” (Maxirna (Shanghai) Pharmaceutical Co., Ltd., priority 2023, dated 2024)

Experiments:
[1] = Size and polydispersity index (PDI) of the lipid nanoparticle by dynamic light scattering; assay type: physicochemical; conditions: LNP encapsulating eGFP mRNA, ionizable lipid/DOPE/cholesterol/DMG-PEG2000 50/10/48.25/1.25 mol%, N/P 12; for Particle size: in nm (unit assumed)
Experimental: (§1) The ionizable lipid compound and positive control 1 from Example I were dissolved in ethanol at a molar ratio of 50:10:48.25:1.25 with DOPE, cholesterol, and DMG-PEG2000 (all purchased from A.V.T (Shanghai) Pharmaceutical Co., Ltd.) to prepare an ethanol lipid solution. The enhanced green fluorescent protein (eGFP) mRNA was diluted in 20 mM citrate buffer (pH=6.1) to obtain an mRNA aqueous solution. By using a microfluidic device (Micro&Nano Biologics Co., Ltd., model: INano ™ L) mix ethanol lipid solution and mRNA aqueous solution in a volume ratio of 1:3 to prepare a lipid nanoparticle with a total lipid to mRNA N/P ratio of 12. The medium was replaced by ultrafiltration, ethanol was removed and volumed with DPBS. Finally, the lipid nanoparticle was filtered through a 0.2 µm sterile filter to obtain an LNP preparation encapsulating eGFP mRNA using ionizable lipid/DOPE/cholesterol/DMG-PEG2000 (50/10/48.25/1.25 mol%), with an mRNA content of 0.002 mg/ml-0.5 mg/mL.
(§2) Using Malvern Zetasizer Nano ZS (Malvern UK), the size and polydispersity index (PDI) of the lipid nanoparticle were determined by dynamic light scattering in 173° backscatter detection mode, and the encapsulation efficiency was measured by Ribogreen method.

[2] = Encapsulation efficiency of the lipid nanoparticle (eGFP mRNA) by Ribogreen method; assay type: physicochemical; conditions: LNP encapsulating eGFP mRNA, ionizable lipid/DOPE/cholesterol/DMG-PEG2000 50/10/48.25/1.25 mol%, N/P 12
Experimental: as §1, §2

DC2.4 cells = assay: In vitro transfection of cells with eGFP-mRNA lipid nanoparticle (LNP preparation), fluorescence imaging and flow cytometry; assay type: cell-based, mouse; conditions: for Cell viability, % / Positive rate, %: DC2.4 cells, 200 ng of mRNA per well, after 24 hours; for Positive rate, %: eGFP positivity rate; for Mean fluorescence intensity: eGFP-mRNA expression on DC2.4 after 24 hours, normalized based on Example 11
From the text: (§3) This example used mouse bone marrow-derived dendritic cells DC2.4 (purchased from Millipore) as the validation cell line for a lipid nanoparticle transfection experiment. DC2.4 cells adhered to the wall for growth. All operational steps of cell culture strictly followed the prescribed procedures, using sterile reagents for aseptic operations under a sterile workbench. The main operational steps involved were as follows: • 1) Cell recovery: the preserved cell cryopreservation solution was removed from the -80 °C freezer and immediately placed in a 37 °C water bath for rapid and continuous shaking, allowing it to completely melt within one minute. Fresh culture medium was added to a 15 mL centrifuge tube in advance, and the cell fluid was added to the centrifuge tube in a biosafety cabinet. A centrifuge tube of the same mass was taken, placed symmetrically in the centrifuge, and centrifuged at low speed for 5 minutes at 1200 rpm. After centrifugation, the upper clear liquid was removed, and an appropriate amount of culture medium was slowly added along the tube wall. After the cells were gently blown and dispersed evenly, the cell suspension was drawn and added to the prepared culture bottle. The state and distribution of cells in the early stage of recovery were observed under a microscope. The culture bottle was incubated in a 5% CO2 incubator at 37 °C, and the recovery time was recorded. • 2) Cell passaging: Under a microscope, if the cell density in the field of view reached 80%-90%, cells could be passaged and cultured. Adherent cells required trypsin digestion. In order to avoid residual serum in the culture medium reducing trypsin activity, the original culture medium was removed, and DPBS solution was added to wash once. After suctioning out the DPBS solution, trypsin was added to degrade the protein at the intercellular junction, thereby separating the cells and facilitating further cultivation. The mixture was gently shaken well and placed into the incubator for digestion for 2-3 minutes. After digestion was complete, an appropriate amount of culture medium was immediately added to the original culture dish to terminate digestion. Finally, a pipette was used to carefully blow off the cells and blow them until they were evenly dispersed, and then the cells were inoculated and subcultured in a certain proportion according to experimental requirements.
(§4) Transfection of DC2.4 cells • 1) DC2.4 cell recovery: the frozen DC2.4 cells were taken out from the -80 °C refrigerator and immediately put into a 37 °C water bath for rapid thawing. After melting, they were added to the preheated culture medium, and centrifuged at 1200 rpm for 5 minutes. The supernatant was discarded, and an appropriate amount of DMEM medium containing 10% FBS was added to resuspend the recovered DC2.4 cells, which were placed in a 37 °C, 5% CO2 incubator for activation culture. • 2) According to experimental requirements, DC2.4 cells were transfected into 24 well plates one day in advance. By counting cells, the number and viability of cells were recorded, and a cell suspension with 2 × 10^5 cells per well were taken. Then, a certain volume of DMEM medium containing 10% FBS was added and mixed evenly, wherein 1 mL was added per well for subsequent transfection experiments. • 3) After 24 hours, the culture medium was gently aspirated with a pipette 30 minutes in advance, and each well was washed with 1 mL of DPBS and aspirated. […] The mixture was placed in a 37 °C, 5% CO2 incubator for activation cultivation. • 6) After 24 hours, cell viability (%), eGFP positivity rate (%), and mean fluorescence intensity data were obtained through cell fluorescence imaging and flow cytometry.

[3] = as above; assay type: cell-based, mouse; conditions: mouse, dc2.4 cells, 200 ng of mRNA per well, after 24 hours; read-out: Cell viability, %
From the text: as §3, §4

Compound | PDI [1] | Encapsulation rate, % [2] | Particle size [1] | Cell viability, % (DC2.4 cells) | Positive rate, % (DC2.4 cells) | Mean fluorescence intensity (DC2.4 cells) | viability at 24 h [3] | Cell viability, % (DC2.4 cells; 1440 min)
CCCCCCCCC(CCCCCCCC)OC(=O)CCCCCCCN(CCO)CCCN(CCCCCCCC(=O)OC(CCCCCCCC)CCCCCCCC)CCCCCCCC(=O)OC(CCCCCCCC)CCCCCCCC [Example 2, Di(heptadecane-9-yl)8,8'-((3-((8-(heptadecane-9-oxy)-8-oxooctyl)(2-hydroxyethyl)amino)propyl)azanediyl)dioctanoate] | 0.24 | 97.27% | – | – | 73.48% | – | 82.9% | –
CC(C)=CCC/C(C)=C/COC(=O)CCCCCCCN(CCO)CCCN(CCCCCCCC(=O)OC/C=C(\C)CCC=C(C)C)CCCCCCCC(=O)OC/C=C(\C)CCC=C(C)C [Example 3, Di((E)-3,7-dimethyloctan-2,6-dien-1-yl)8,8'-((3-((8-(((E)-3,7-dimethyloctan-2,6-dien-1-yl)oxo)-8-oxooctyl)(2-hydroxyethyl)amino)propyl)azanediyl)dioctanoate] | 0.12 | 95.96% | 92.13 | – | 93.43% | – | 68.6% | –
CCCCCCCOC(=O)CCCCCCCN(CCO)CCCN(CCCCCCCC(=O)OCCCCCCC)CCCCCCCC(=O)OCCCCCCC [Example 4, Diheptyl 8,8'-((3-((8-(heptyloxy)-8-oxooctyl)(2-hydroxyethyl)amino)propyl)azanediyl)dioctanoate] | 0.25 | 60.89% | – | – | 78.26% | – | 75.9% | –
CCCCCOC(=O)CCCCCCCN(CCO)CCCN(CCCCCCCC(=O)OCCCCC)CCCCCCCC(=O)OCCCCC [Example 5, Dipentyl 8,8'-((3-((2-hydroxyethyl)(8-oxo-8-(pentyloxy)octyl)amino)propyl)azanediyl)dioctanoate] | 0.16 | 94.14% | – | – | 83.41% | – | 86.6% | –
CCCCCCCCCCCOC(=O)CCCCN(CCO)CCCN(CCCCC(=O)OCCCCCCCCCCC)CCCCC(=O)OCCCCCCCCCCC [Example 38, Diundecyl 5,5'-((3-((2-hydroxyethyl)(5-oxo-5-(undecyloxy)pentyl)amino)propyl)azadiyl)dipentanoate] | 0.10 | 99.04% | 65.19 | – | 90.28% | – | – | 94.1%
CCCCC/C=C\C/C=C\CCCCCCCCOC(=O)CCCCCCCN(CCO)CCCN(CCCCCCCC(=O)OCCCCCCCC/C=C\C/C=C\CCCCC)CCCCCCCC(=O)OCCCCCCCC/C=C\C/C=C\CCCCC [Example 79] | 70.67 | 99.80% | 99.80 | – | 95.05% | – | – | 95.0%
Tetratridecyl 8,8',8",8"-(((3-hydroxypropyl)azadiyl)di(propane-3,1-diyl))di(azanetriyl)tetraoctanoate [Example 99] | 0.26 | 69.17% | – | 93.2% | 77.44% | 0.49 | – | –

Second part, led by results:

PDI [1] | Encapsulation rate, % [2] | Particle size [1] | Compound | Cell viability, % (DC2.4 cells) | Positive rate, % (DC2.4 cells) | Mean fluorescence intensity (DC2.4 cells) | viability at 24 h [3] | Cell viability, % (DC2.4 cells; 1440 min)
0.24 | 66.08% | – | 4,4'-(3-(((2-hydroxyethyl)((E)-4-oxo-4-(undecyloxy)but-2-en-1-yl)amino)propyl)azadiyl)(2E,2'E)-di(but-2-enoic acid) [Example 105] | 95.8% | 78.32% | 0.39 | – | –
0.12 | 93.93% | 94.58 | 4,4'-didecyl((4-(decyloxy)-4-oxobutyl)(3-hydroxypropyl)amino)butyl)azetidinyl)dibutanoate [Example 102] | 94.6% | 93.18% | 1.28 | – | –
0.13 | 93.34% | 89.25 | 8-((6Z,10Z,46Z,49Z)-30-(3-hydroxypropyl)-20,36-dioxo-26,30-diaza-19,37-dioxapentatriacontane-6,9,46,49-tetraen-26-yl)(7Z,10Z)-hexadec-7,10-dien-1-yl octanoate [Example 96] | 96.6% | 94.64% | 0.97 | – | –
0.11 | 97.58% | 89.72 | CCCCCCCCCCCCOC(=O)CCCN(CCCO)CCCCN(CCCC(=O)OCCCCCCCCCCCC)CCCC(=O)OCCCCCCCCCCCC [Example 84] | – | 96.42% | – | – | 90.2%
0.10 | 93.32% | – | CCCCCCCCCCCCCOC(=O)CCCN(CCCO)CCCCN(CCCC(=O)OCCCCCCCCCCCCC)CCCC(=O)OCCCCCCCCCCCCC [Example 85, 4,4'-((4-((3-hydroxypropyl)(4-oxo-4-(tridecyloxy)butyl)amino)butyl)azetidinyl)dibutyric acid diester] | – | 96.2% | – | – | 95.9%
0.14 | 94.33% | 84.42 | CCCCCCCCCCCCCOC(=O)CCCCCCCN(CCO)CCCN(CCCCCCCC(=O)OCCCCCCCCCCCCC)CCCCCCCC(=O)OCCCCCCCCCCCCC [Example 90, Tridecyl 8-(29-hydroxy-15-oxo-23-(8-oxo-8-(tridecyloxy)octyl)-23,27-diaza-14-oxanonacosane-27-yl)octanoate] | – | 92.38% | – | – | 91.6%
0.24 | 79.63% | – | CCCCCCCCCCCOC(=O)CCCCCCCCCN(CCO)CCCN(CCCCCCCCCC(=O)OCCCCCCCCCCC)CCCCCCCCCC(=O)OCCCCCCCCCCC [Example 91, Undecyl 10-(29-hydroxy-13-oxo-23-(10-oxo-10-(undecyl)oxydecyl)-23,27-diaza-12-oxanonacosane-27-yl)caprate] | – | 62.74% | – | – | 91.4%
0.28 | 76.22% | – | CCCCCC/C=C\COC(=O)CCCCCCCCCN(CCO)CCCN(CCCCCCCCCC(=O)OC/C=C\CCCCCC)CCCCCCCCCC(=O)OC/C=C\CCCCCC [Example 92, 10-((7Z)-27-hydroxy-21-(10-(((2Z)-non-2-enyl)oxy)-10-oxodecyl)-11-oxo-21,25-diaza-10-oxaheptacosane-7-en-25-yl)decanoic acid-(2Z)-non-2-en-1-yl ester] | – | 73.64% | – | – | 92.6%
0.34 | 67.68% | – | CC/C=C\COC(=O)CCCCCCCN(CCO)CCCN(CCCCCCCC(=O)OC/C=C\CC)CCCCCCCC(=O)OC/C=C\CC [Example 97] | – | 83.64% | – | – | 90.5%
